Measurements as given in ChEMBL document CHEMBL3988181, “GlaxoSmithKline Published Kinase Inhibitor Set 2 Onchocerca lienalis Screening Data”.

Test: GSK PKIS2: Screen against O. lienalis microfilariae, single point, at 3.1uM to assess reduction in motility. Compounds were also tested for cytotoxicity against Rhesus Monkey LLCMK2 cells.
Format: functional, Onchocerca lienalis, LLC-MK2
Settings: CELL_LINE LLCMK2; CELL_SUPPLIER ECACC; CONC 3.1 uM; ORGANISM_SUPPLIER Extracted from peri-umbilical skin obtained from naturally infected cattle in the UK; temperature 37 degree C

Structure (SMILES) | MOTILITY REDUCTION/CYTOTOXICITY
CCn1cnc2c(NCc3ccccc3)ncnc21 | 0%
COc1cccc(CNC(=O)NC2CCN(c3ccnc(Nc4cc(OC)c(OC)c(OC)c4)n3)C2)c1 (stereo unspecified) | 66.7%
CCNCC(Cc1ccccc1)NC(=O)c1cc(Br)c(-c2ccnc3[nH]ccc23)s1 (stereo unspecified) | 0%
NCC(C(=O)Nc1cc(Br)c(-c2ccnc3[nH]ccc23)s1)c1ccccc1 (stereo unspecified) | 0%
Oc1cc(Nc2ccnc3cc(I)ccc23)ccc1F | 33.4%
CSc1ccc(NC2=C(c3cccc(Cl)c3)C(=O)NC2=O)cc1 | 0%
COc1cc2nccc(Nc3ccc(Oc4ccccc4)cc3)c2cc1OC | 0%
Nc1ncnc2scc(-c3ccc(NC(=O)Cc4cc(F)ccc4F)cc3)c12.O=C(O)C(F)(F)F | 40%
COc1cc(Nc2nccc(N3CCC(NC(=O)Nc4ccc5c(c4)OCO5)C3)n2)cc(OC)c1OC (stereo unspecified) | 0%
O=C1NC(=O)C(c2ccccc2Cl)=C1Nc1ccccc1 | 0%
O=C(Nc1[nH]nc2cc(-c3cccc(F)c3F)ccc12)C1CC1 | 0%
O=c1cc(N2CCOCC2)nc2n(Cc3cccc(Cl)c3Cl)c3ccccc3n12 | 0%
c1ccc(-c2ccc3c(Nc4ccc5[nH]ncc5c4)ccnc3c2)nc1 | 60%
COc1cc(Nc2nccc(N3CCC(NC(=O)Nc4cccc(C(C)=O)c4)C3)n2)cc(OC)c1OC (stereo unspecified) | 100%
COc1cccc(C2=C(Nc3cccc(Cl)c3)C(=O)NC2=O)c1 | 0%
O=C(NCC1CC1)c1ccc(-c2cc(C(=O)NC3CC3)ccc2F)cc1 | 0%
Cc1cccc(Nc2nc(N[C@H]3CCNC3)ncc2C(N)=O)c1 | 26.7%
COc1ccc(Nc2nccc(N3CCC(NC(=O)Nc4cccc(C(C)=O)c4)C3)n2)cc1 (stereo unspecified) | 0%
CSc1nccc(-c2c(-c3ccc(F)cc3)ncn2CCCN2CCOCC2)n1 | 33.4%
O=C1NC(=O)C(c2ccccc2)=C1Nc1cccc(O)c1 | 0%
CC(C)c1ccc(O)cc1Nc1ccnc2ccc(C(F)(F)F)cc12 | 33.4%

Structure (SMILES) | MOTILITY REDUCTION/CYTOTOXICITY
Cc1nnc(-c2ccc(C)c(-c3ccc(C(=O)O)cc3)c2)o1 | 33.4%
c1ccc(Oc2ccc(Nc3ccnc4ccc(-c5ccccn5)cc34)cc2)cc1 | 0%
CNc1nccc(-c2ccc3c(N)n[nH]c3c2)n1 | 0%
CCCCc1nn2ncccc2c1-c1ccnc(NC2CC2)n1 | 0%
FC(F)(F)c1ccc(-c2nn3ncccc3c2-c2ccnc(Nc3cccc(C(F)(F)F)c3)n2)cc1 | 0%
Cc1ccc(C)c(NC(=O)Nc2ccc(C)c(-c3ccc(C(=O)Nc4ccncc4)cc3)c2)c1 | 33.4%
CC(=O)c1cccc(NC(=O)NC2CCN(c3ccnc(Nc4ccc(F)cc4)n3)C2)c1 (stereo unspecified) | 0%
CNc1nc(-c2ccc3c(N)n[nH]c3c2)cc(N2C[C@@H](C(=O)NC3CCCCC3)OC[C@H]2C)n1 | 0%
COc1ccc(Nc2nccc(N3CCC(NC(=O)Nc4cccc(OC)c4)C3)n2)cc1 (stereo unspecified) | 0%
COc1cc2ncn(-c3cc(OCC4CCCO4)c(C(N)=O)s3)c2cc1OC (stereo unspecified) | 46.7%
COc1ccc(Nc2nccc(N3CCC(NC(=O)c4cc5ccccc5s4)C3)n2)cc1 (stereo unspecified) | 0%
CCC(CC)(CC)n1cnc2c(N)ncnc21 | 0%
O=C1NC(=O)C(c2ccccc2Cl)=C1Nc1cccc(C(=O)O)c1 | 0%
Fc1ccc(-c2ncn(CCCN3CCOCC3)c2-c2ccccn2)cc1 | 13.4%
CC(=O)Nc1n[nH]c2ncc(-c3ccccc3)cc12 | 0%
Cc1ccc2c(-c3ccncc3)c(-c3ccc(F)cc3)nn2c1 | 0%
Cc1nn2c(=O)cc(N3CCO[C@H](C)C3)nc2n1Cc1cccc(Cl)c1Cl | 33.4%
CC(C)Oc1ccc2c(-c3ccnc(Nc4ccc(N5CCN(C)CC5)cc4)n3)cnn2n1 | 0%
Nc1nc(-c2ccc3c(N)n[nH]c3c2)cc(N2CCC[C@@H](C(=O)Nc3ccccc3)C2)n1 | 0%
O=c1cc(N2CCOCC2)nc2n(Cc3ccccc3F)ccn12 | 0%
Cc1occc1-c1nc(N)c(OC[C@@H](N)Cc2c[nH]c3ccccc23)cc1-c1cc2c(C)n[nH]c2cn1 | 0%

Structure (SMILES) | MOTILITY REDUCTION/CYTOTOXICITY
Nc1nccc2scc(-c3ccc4c(c3)CCN4C(=O)Cc3ccccc3)c12 | 0%
c1ccc(-c2n[nH]cc2-c2ccnc3ccccc23)nc1 | 0%
CSc1ccc(NC2=C(c3ccc(Cl)cc3)C(=O)NC2=O)cc1 | 0%
CCCC(=O)Nc1n[nH]c2ncc(-c3cccc4ccccc34)cc12 | 0%
CNc1cc(-c2ccc3c(N)n[nH]c3c2)nc(N)n1 | 0%
CC(C)(C)n1cnc2c(N)ncnc21 | 0%
NCCCC(NC(=O)c1cc(Br)c(-c2ccnc3[nH]ccc23)s1)c1ccccc1 (stereo unspecified) | 0%
C[C@@H](Oc1cc(-n2cnc3cc(-c4cnn(C)c4)ccc32)sc1C(N)=O)c1ccccc1Cl | 46.7%
O=C(c1ccc(-c2cc(-c3c[nH]nc3-c3ccccn3)ccn2)cc1)N1CCCC1 | 0%
Cc1ccccc1COc1cc(-n2cnc3cc(Cl)ccc32)sc1C(N)=O | 0%
COc1ccc(CNC(=O)NC2CCN(c3ccnc(Nc4cc(OC)c(OC)c(OC)c4)n3)C2)cc1 (stereo unspecified) | 0%
C[C@H]1CC[C@@H](C(=O)Nc2ccccc2)CN1c1cc(-c2ccc3c(N)n[nH]c3c2)nc(N)n1 | 0%
Cc1ccc(NC(=O)Nc2cc(C(C)(C)C)nn2-c2ccccc2)cc1 | 0%
CS(=O)(=O)Nc1ccc(-c2ccnc3[nH]ccc23)cc1 | 0%
Cc1ccc(NC(=O)Nc2ccc(Cl)c(C(F)(F)F)c2)cc1-c1ccc(C(=O)Nc2ccncc2)cc1 | 40%
NC(CNC(=O)c1cc(Br)c(-c2ccnc3[nH]ccc23)s1)c1ccccc1 (stereo unspecified) | 40%
CC(=O)N1CCN(c2ccc(Nc3nccc(-c4sc(C(C)C)nc4-c4cccc(NS(=O)(=O)c5cccc(Cl)c5)c4)n3)cn2)CC1 | 0%
CC(C)c1nc(-c2ccc(F)c(NS(=O)(=O)c3c(F)cccc3F)c2)c(-c2ccnc(Nc3ccc(N4CCOCC4)nc3)n2)s1 | 0%
COc1ccc(Nc2nccc(-c3cccc(NC(=O)c4cc5cc(F)ccc5[nH]4)c3)n2)cc1 | 53.4%
COc1ccc(Nc2ncc(C#N)c(Nc3ccccc3C(N)=O)n2)cc1N1CCN(C)CC1 | 13.4%
NC[C@H](CC1CCCCC1)NC(=O)c1ccc(-c2ccnc3[nH]ccc23)s1 | 66.7%

Structure (SMILES) | MOTILITY REDUCTION/CYTOTOXICITY
CC(C)NCC(Cc1ccccc1)NC(=O)c1cc(Br)c(-c2ccnc3[nH]ccc23)s1 (stereo unspecified) | 66.7%
COc1ccc(CNC(=O)NC2CCN(c3ccnc(Nc4ccc(OC)cc4)n3)C2)cc1 (stereo unspecified) | 0%
FC(F)(F)c1cc(Br)cc(Nc2nccc(-c3cnn4ncccc34)n2)c1 | 46.7%
c1ccc(Cn2ccc3cc(Nc4ncnc5ccccc45)ccc32)cc1 | 33.4%
Fc1ccc(-c2ncn(C3CCNCC3)c2-c2ccnc(Oc3ccc(-c4ccccc4)cc3)n2)cc1 | 0%
O=C(NC1CCN(c2ccnc(Nc3ccc(F)cc3)n2)C1)c1cc2ccccc2s1 (stereo unspecified) | 0%
COc1ccc(C2=C(Nc3cccc(O)c3)C(=O)NC2=O)cc1 | 13.4%
O=C(Nc1n[nH]c2nc(-c3cccc(O)c3)ccc12)C1CC1 | 0%
Cc1ccc(Nc2ccnc(Nc3ccc(C)c(F)c3)n2)cc1O | 33.4%
Cc1c(Cn2ccn3c(=O)nc(N4CCOCC4)cc23)cccc1C(F)(F)F | 0%
Cn1cnc2c(N)ncnc21 | 0%
Nc1ncc(-c2ccc3nccc(-c4ccncc4)c3c2)cc1S(=O)(=O)N1CCCCC1 | 33.4%
CN1C(=O)C(Nc2ccccc2)=C(c2ccccc2)C1=O | 13.4%
NS(=O)(=O)c1cccc(-c2ccc3nccc(-c4cccc(S(N)(=O)=O)c4)c3c2)c1 | 0%
COc1ccc(Nc2nccc(N3CCC(NC(=O)Nc4cc(C)ccc4C)C3)n2)cc1 (stereo unspecified) | 0%
O=C(NCCNc1ccnc(Nc2ccc(F)cc2)n1)Nc1ccccc1F | 0%
CN(c1ccc(NC(=O)N2CCN(CCCN3CCOCC3)CC2)cc1)c1ccnc(Nc2ccc(CS(C)(=O)=O)cc2)n1 | 0%
O=C(Nc1n[nH]c2cc(-c3ccoc3)ccc12)C1CC1 | 13.4%
